Test results as given in patent publication US20230210790A1, “GEL FOR USE IN GASTROINTESTINAL ENDOSCOPY AND ENDODERMAL, EPIDERMAL, AND OTHER MUCOSAL USES” (The Johns Hopkins University, priority 2020, published 2023).

System: bleeding ulcers in a live porcine model
Assay: In vivo bleeding control by injectable gel, porcine bleeding model
Design: species or system Yorkshire pigs
Settings: 5 mL injected adjacent to bleeding ulcer
Procedure: To test the efficacy of epinephrine gels for bleeding control, a porcine bleeding model was created.
After ulcer creation, gel formulations or saline (negative control), epinephrine 1:10,000 (positive control) of 5 mL each were injected adjacent to the bleeding ulcer.

CNC[C@H](O)c1ccc(O)c(O)c1 [Epinephrine 1:10,000, Epinephrine]
No: Time at 5 min, bleeding present | Time at 10 min, bleeding present | Time at 15 min, bleeding present
